# Source: patent US9999222B2, “Herbicidal combination comprising azines” (BASF SE, priority 2014, dated 2018)
# Where “and” joins values, the source holds several entries; their conditions need not be identical. Identical values can stand only once. Like-named read-outs stand apart in the source and are kept apart here.
# What was measured:
# Assay in all cases: Greenhouse test, pre-emergence treatment
# EPHHL = format: in vivo, Euphorbia heterophylla; details: Euphorbia heterophylla, pre-emergence, 480 h, pre-emergence, 250 g ai/ha; read-out: observed % activity 20 DAT
# Method in brief: (§1)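 Seeds were sown in loamy sand with about 3.0% humus, and compounds in water were sprayed immediately after sowing, alone or as combinations formulated as 10% emulsion concentrates. Plants grew under hoods until rooted, at 10-25 °C or 20-35 °C by species, for 2 to 4 weeks. Damage was scored 0-100 (100 = no emergence or complete destruction), and Colby expected values were E=X+Y−(X·Y/100).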
# ELEIN = format: in vivo, Eleusine indica; details: Eleusine indica, 480 h, read-out: observed % activity 20 DAT
# From the text: The culture containers used were plastic flowerpots containing loamy sand with approximately 3.0% of humus as the substrate. The seeds of the test plants were sown separately for each species.
# For the pre-emergence treatment, the active ingredients, which had been suspended or emulsified in water, were applied directly after sowing by means of finely distributing nozzles. The containers were irrigated gently to promote germination and growth and subsequently covered with transparent plastic hoods until the plants had rooted. This cover caused uniform germination of the test plants, unless this had been impaired by the active ingredients.
# Depending on the species, the plants were kept at 10-25° C. or 20-35° C., respectively.
# The test period extended over 2 to 4 weeks. During this time, the plants were tended, and their response to the individual treatments was evaluated.
# Evaluation was carried out using a scale from 0 to 100. 100 means no emergence of the plants, or complete destruction of at least the aerial moieties, and 0 means no damage, or normal course of growth. A moderate herbicidal activity is given at values of at least 60, a good herbicidal activity is given at values of at least 70, and a very good herbicidal activity is given at values of at least 85.
# The respective stated components a and b, and if appropriate, c were formulated as a 10% by weight strength emulsion concentrate and, with addition of the amount of solvent system, introduced into the spray liquor used for applying the active compound.
# In the examples, the solvent used was water.
# In the examples below, using the method of S. R. Colby (1967) “Calculating synergistic and antagonistic responses of herbicide combinations”, Weeds 15, p. 22ff., the value E, which is expected if the activity of the individual active compounds is only additive, was calculated. E=X+Y−(X·Y/100) where • X=percent activity using active compound a at an application rate A; • Y=percent activity using active compound b at an application rate B; • E=expected activity (in %) by a+b at application rates A+B.
# If the value found experimentally is higher than the value E calculated according to Colby, a synergistic effect is present.
# GALAP = format: in vivo, Galium aparine; details: Galium aparine, pre-emergence, 480 h; for inhibition at 125 g/ha: 125 g ai/ha
# Method in brief: as §1
# AVEFA = format: in vivo, Avena fatua; details: for inhibition at 125 g/ha / inhibition at 250 g/ha: Avena fatua, 480 h; for inhibition at 125 g/ha: 125 g ai/ha
# Method in brief: as §1
# COMBE = format: in vivo, Commelina benghalensis; details: Commelina benghalensis, pre-emergence, 480 h, pre-emergence, 250 g ai/ha; read-out: observed % activity 20 DAT
# Method in brief: as §1
# LOLMU = format: in vivo, Lolium multiflorum; details: pre-emergence
# Method in brief: as §1
# POLCO = format: in vivo, Polygonum convolvulus; details: Fallopia convolvulus, pre-emergence, 480 h, pre-emergence
# Method in brief: as §1
# KCHSC = format: in vivo, Kochia scoparia; details: Bassia scoparia, pre-emergence, 480 h, pre-emergence, 125 g ai/ha; read-out: observed % activity 20 DAT
# Method in brief: as §1
# ALOMY = format: in vivo, Alopecurus myosuroides
# Method in brief: as §1
# ECHCG = format: in vivo, Echinocloa crus-galli; details: Echinochloa crus-galli, 480 h, read-out: observed % activity 20 DAT
# Method in brief: as §1
# BRADC = format: in vivo, Brachiaria decumbens
# Method in brief: as §1
# PHACA = format: in vivo, Phalaris canariensis; details: for inhibition at 250 g/ha: 250 g ai/ha
# Method in brief: as §1
# [1] = 62, 5 g ai/ha, 20 DAT, read-out: observed % activity
smiles,measurement,setting,value
CSc1nnc(C(C)(C)C)c(=O)n1N [metribuzin],inhibition at 250 g/ha,EPHHL,85%
same,inhibition at 125 g/ha,ELEIN; 125 g ai/ha,98%
same,inhibition at 250 g/ha,ELEIN; 250 g ai/ha,98%
same,inhibition at 125 g/ha,"GALAP; 20 DAT, read-out: observed % activity",30%
same,inhibition at 250 g/ha,"GALAP; 250 g ai/ha, 20 DAT, read-out: observed % activity",30%
same,inhibition at 125 g/ha,GALAP; read-out: observed % activity 20 DAT,20%
same,pest or weed control at 62.5 g/ha,GALAP; [1],30%
same,observed % activity,"AVEFA; 62, 5 g ai/ha, 20 DAT",0%
same,inhibition at 125 g/ha,"AVEFA; pre-emergence, 20 DAT, read-out: observed % activity",10%
same,inhibition at 250 g/ha,"AVEFA; pre-emergence, 250 g ai/ha, 20 DAT, read-out: observed % activity",55%
same,inhibition at 125 g/ha,"AVEFA; pre-emergence, pre-emergence, read-out: observed % activity 20 DAT",80%
same,inhibition at 250 g/ha,"AVEFA; pre-emergence, pre-emergence, 250 g ai/ha, read-out: observed % activity 20 DAT",70%
same,observed % activity 20 DAT,"AVEFA; pre-emergence, 250 g ai/ha",65%
same,inhibition at 250 g/ha,COMBE,90%
same,inhibition at 125 g/ha,"LOLMU; Lolium multiflorum, 480 h, 125 g ai/ha, 20 DAT, read-out: observed % activity",60%
same,inhibition at 250 g/ha,"LOLMU; Lolium multiflorum, 480 h, 250 g ai/ha, 20 DAT, read-out: observed % activity",90%
same,inhibition at 62.5 g/ha,"LOLMU; Lolium multiflorum, 480 h, 62.5 g ai/ha, read-out: observed % activity 20 DAT",0%
same,inhibition at 125 g/ha,"LOLMU; Lolium multiflorum, 480 h, 125 g ai/ha, read-out: observed % activity 20 DAT",55%
same,observed % activity 20 DAT,LOLMU; 125 g ai/ha,65%
same,observed % activity 20 DAT,LOLMU; 250 g ai/ha,45% and 75%
same,inhibition at 125 g/ha,"POLCO; 125 g ai/ha, read-out: observed % activity 20 DAT",20%
same,inhibition at 250 g/ha,"POLCO; 250 g ai/ha, read-out: observed % activity 20 DAT",20%
same,pest or weed control at 62.5 g/ha,POLCO; [1],0%
same,inhibition at 125 g/ha,KCHSC,95%
same,observed % activity,"ALOMY; 62, 5 g ai/ha, 20 DAT",35%
same,inhibition at 250 g/ha,"ALOMY; Alopecurus myosuroides, pre-emergence, 480 h, 250 g ai/ha, 20 DAT, read-out: observed % activity",98%
same,inhibition at 62.5 g/ha,"ALOMY; Alopecurus myosuroides, pre-emergence, 480 h, pre-emergence, 62.5 g ai/ha, read-out: observed % activity 20 DAT",0%
same,inhibition at 125 g/ha,"ALOMY; Alopecurus myosuroides, pre-emergence, 480 h, pre-emergence, 125 g ai/ha, read-out: observed % activity 20 DAT",80%
same,inhibition at 250 g/ha,"ALOMY; Alopecurus myosuroides, pre-emergence, 480 h, pre-emergence, 250 g ai/ha, read-out: observed % activity 20 DAT",90%
same,observed % activity 20 DAT,"ALOMY; pre-emergence, 250 g ai/ha",75%
same,inhibition at 125 g/ha,ECHCG; 125 g ai/ha,80%
same,inhibition at 250 g/ha,ECHCG; 250 g ai/ha,95%
same,observed % activity,"BRADC; 62, 5 g ai/ha, 20 DAT",50%
same,inhibition at 62.5 g/ha,"BRADC; Urochloa decumbens, pre-emergence, 480 h, pre-emergence, 62.5 g ai/ha, read-out: observed % activity 20 DAT",45%
same,observed % activity 20 DAT,"BRADC; pre-emergence, 250 g ai/ha",40%
same,observed % activity,"PHACA; 62, 5 g ai/ha, 20 DAT",30%
same,inhibition at 125 g/ha,"PHACA; Phalaris canariensis, pre-emergence, 480 h, 125 g ai/ha, 20 DAT, read-out: observed % activity",70%
same,inhibition at 250 g/ha,"PHACA; Phalaris canariensis, pre-emergence, 480 h, 20 DAT, read-out: observed % activity",90%
same,inhibition at 62.5 g/ha,"PHACA; Phalaris canariensis, pre-emergence, 480 h, pre-emergence, 62.5 g ai/ha, read-out: observed % activity 20 DAT",15%
same,inhibition at 125 g/ha,"PHACA; Phalaris canariensis, pre-emergence, 480 h, pre-emergence, 125 g ai/ha, read-out: observed % activity 20 DAT",65%
same,inhibition at 250 g/ha,"PHACA; Phalaris canariensis, pre-emergence, 480 h, pre-emergence, read-out: observed % activity 20 DAT",95%
same,observed % activity 20 DAT,"PHACA; pre-emergence, 125 g ai/ha",75%
